According to US20220090096A1 (priority 2019, published 2022):

Tests used:
[1] = test system: Clostridium spp.; settings: cited from earlier work
[2] = test system: Pfdx-rbG-botR-T1-Pntnh-catP construct integrated in the pyrE locus; assay type: cell-based, C. botulinum ATCC 19397 ΔClA

Q: Which “effect on cell growth” value [1] does the source give for `Cc1c2c(c(O)c3c(O)cccc13)C(=O)[C@]1(O)C(=O)C(C(N)=O)=C(O)[C@@H](N(C)C)[C@@H]1C2` [anhydrotetracycline] here?
A: significant inhibitory effects on cell growth

Q: Which “CAT expression upon induction relative to absence of theophylline” value [2] does the source give for `Cn1c(=O)c2[nH]cnc2n(C)c1=O` [theophylline] here?
A: approximately 7 fold
